This is an account of results in PMC3888668 (Biological psychiatry, 2008).

By Ki is commonly meant a measure of affinity in units of concentration, obtained from inhibition or displacement. Usually IC50 stands for the concentration that inhibits the measured activity by half. One may read the EC50 as the concentration at which the effect is half-maximal.

For data set [1], the target named is μ opioid peptide receptor (MOP-R). To be noted: cited from earlier work.
The test system of data set [2] is rats. The experiment in a line: Conditioned place preference. In kind it is in vivo, rat. To be noted: Figure 1C in Supplement 1.
Data set [3] relates to low-ethanol–consuming rats. Kind of data set: Continuous-access 10% ethanol two-bottle-choice drinking paradigm. To be noted: for Preference for Ethanol: continuous access to 10% ethanol, mean ± SEM, n = 12.
The subject of data set [4] is high-ethanol–consuming rats. Kind of data set: Daily administration for 28 days, intermittent-access 20% ethanol, naive rats.
For data set [5], the target named is T1, DOP-R (Rattus norvegicus, UniProt P33533). In kind it is biochemical. To be noted: striatal membranes.
T1 sequence (P33533 whole entry): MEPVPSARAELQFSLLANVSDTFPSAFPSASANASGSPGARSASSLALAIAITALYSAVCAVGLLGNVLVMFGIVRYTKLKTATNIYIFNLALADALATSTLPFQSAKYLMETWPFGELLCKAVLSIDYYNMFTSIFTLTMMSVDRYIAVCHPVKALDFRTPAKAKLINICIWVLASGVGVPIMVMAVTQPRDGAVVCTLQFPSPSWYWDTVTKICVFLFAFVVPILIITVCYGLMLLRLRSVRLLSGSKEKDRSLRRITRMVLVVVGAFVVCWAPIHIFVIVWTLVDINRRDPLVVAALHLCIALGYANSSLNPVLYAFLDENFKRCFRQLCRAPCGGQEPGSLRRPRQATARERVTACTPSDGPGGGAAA
Data set [6] has as its system rats. The experiment in a line: Morphine-mediated analgesia. The format is in vivo, rat. To be noted: Figures 1A and 1B in Supplement 1.
The subject of data set [7] is high-ethanol–consuming rats. To be noted: for Preference for Ethanol: intermittent access to 20% ethanol, 24 hours, mean ± SEM, n = 12; for Ethanol intake after 30 min: after 30 min of ethanol access, Figures 2A-2C in Supplement 1; for Ethanol consumption compared with vehicle: after 24 hours of ethanol access, intermittent access 20% ethanol.
The target in data set [8] is δ opioid peptide receptor (DOP-R). To be noted: cited from earlier work.
In data set [9] the test system is rats. The experiment in a line: Anxiety. In kind it is in vivo, rat. To be noted: Figure 1D in Supplement 1.
A short description of data set [10]: Preliminary pharmacokinetics in plasma. The format is in vivo. To be noted: IP, rat plasma.
Data set [11] concerns high-ethanol–consuming rats. To be noted: .3–1 mg/kg, IP; 30 min and 24 hours of ethanol access; cited from earlier work.
The target in data set [12] is T1, DOP-R. In kind it is biochemical. To be noted: [35S]GTPγS binding.

Where a name gives a salt, the structure may show the parent alone. Read-outs that look alike come from different tables or passages of the source. Marks after values point to notes of the source that are not given here.

`Oc1ccc2c3c1O[C@H]1c4ncc(-c5ccc(Cl)cc5)cc4C[C@@]4(O)[C@@H](C2)N(CC2CC2)CC[C@]314` [SoRI-9409, 5’-(4-Chlorophenyl)-17-(cyclopropylmethyl)-6,7-didehydro-3,14-dihydroxy-4,5-α-epoxypyrido-[2’,3’:6,7]morphinan]: the Ki is 51 ± 8 nM in data set [1] (read-out: Ki, binding affinity for the MOP-R) and 2.2 ± 0.2 nM in data set [8] (read-out: Ki, binding affinity at the DOP-R). Further, in data set [1] (versus naltrexone structure), the “reduced binding affinity for the MOP-R relative to naltrexone” value is reported as “approximately 20 fold”. Besides, the “Conditioned place preference or aversion” value in the data set on rats [2] is “does not produce conditioned place preference or aversion”. The “Ethanol consumption compared with vehicle” value was “but not the 5-mg/kg dose” in [3] (5 mg/kg IP, 24 hours, continuous access 10% ethanol); “significantly reduce ethanol consumption” in [3] (15 and 30 mg/kg IP, 24 hours, continuous access 10% ethanol); “significantly reduced ethanol consumption at all doses” in data set [7] (all doses tested, IP). In addition, the “Preference for Ethanol” value is on record as 39.5 ± 8.6% in data set [3] (5 mg/kg IP, 24 hours); 32.4 ± 7.3 ^b % in data set [3] (15 mg/kg IP, 24 hours); 24.0 ± 6.2 ^b % in [3] (30 mg/kg IP, 24 hours); 49.9 ± 7.3% in data set [7] (5 mg/kg IP); 42.1 ± 7.4 ^a % in data set [7] (15 mg/kg IP); 32.8 ± 4.9 ^a % in [7] (30 mg/kg IP). In data set [4] (5 mg/kg IP daily for 28 days (12 ethanol exposures), n = 16), the “Escalation and maintenance of ethanol intake compared with vehicle” value is “significantly reduced the escalation and maintenance of ethanol intake”. The “Reduction of ethanol intake compared with saline-treated rats” value in data set [4] (5 mg/kg IP daily, for up to 28 days) was > 50%. For the same compound, the IC50 on DOP-R [5] (read-out: Mean (± SEM) IC50 for Striatal DOP-R Inhibition, DPDPE Inhibition, DPDPE (10 μmol/L)-stimulated [35S]GTPγS binding) came out at 3.5 ± 0.3 nM; on DOP-R [5] (read-out: Mean (± SEM) IC50 for Striatal DOP-R Inhibition, SNC80 Inhibition, SNC80 (10 μmol/L)-stimulated [35S]GTPγS binding) it was 31 ± 3.2 nM; on DOP-R [5] (read-out: Mean (± SEM) IC50 for Striatal DOP-R Inhibition, TAN67 Inhibition, TAN67 (10 μmol/L)-stimulated [35S]GTPγS binding) it was 56 ± 8.2 nM. Besides, the “Induction of analgesia and hyperalgesia” value in the data set on rats [6] was “did not reduce morphine-mediated analgesia or induce analgesia and hyperalgesia”. Besides, in data set [7], the “Ethanol intake after 30 min” value was “selectively reduced ethanol intake”. The “Effectiveness at reducing ethanol consumption compared with naltrexone or naltrindole” value in data set [7] (high-ethanol–consuming animals) is “threefold more effective”. In addition, the “higher binding affinity at the DOP-R relative to naltrexone” value in [8] (versus naltrexone structure) is “approximately 20 fold”. For the same compound, the “Anxiolytic or anxiogenic effect” value in the data set on rats [9] is recorded as “is not anxiolytic or anxiogenic”. Besides, the “Detection in plasma after dosing” value in data set [10] was “still detectable in plasma at 12 hours after dosing”. Further, the Elimination half-life in data set [10] (preliminary investigation) worked out at 2.5 h.

On to `O=C1CC[C@@]2(O)[C@H]3Cc4ccc(O)c5c4[C@@]2(CCN3CC2CC2)[C@H]1O5` [Naltrexone], for which the “Preference for Ethanol” value in [3] (5 mg/kg IP, 24 hours) is recorded as 32.7 ± 5.9%; in data set [3] (15 mg/kg IP, 24 hours), 33.8 ± 7.3%; in data set [3] (30 mg/kg IP, 24 hours), 37.0 ± 4.9%; in data set [7] (5 mg/kg IP) it was 55.2 ± 7.1%; in data set [7] (15 mg/kg IP) it was 54.1 ± 6.4%; in data set [7] (30 mg/kg IP), 54.4 ± 4.7%. The “Ethanol consumption compared with vehicle” value is “did not produce any significant effect on ethanol consumption” in [3] (all doses (5, 15, 30 mg/kg IP), after 24 hours of access, continuous access 10% ethanol); “significantly reduce ethanol consumption” in data set [7] (15 and 30 mg/kg IP). For the same compound, the “Ethanol consumption after a limited access period” value in [3] (limited access period 1 hour, continuous access 10% ethanol, data not shown) was “a reduction in ethanol consumption was observed”. In addition, the “Ethanol intake at lower doses” value in data set [11] is on record as “reduce ethanol intake after 30 min but not after 24 hours”. Further, the “Ethanol intake after 30 min” value in data set [7] is given as “selectively reduced ethanol intake”.

Turning to `Oc1ccc2c3c1O[C@H]1c4[nH]c5ccccc5c4C[C@@]4(O)[C@@H](C2)N(CC2CC2)CC[C@]314` [Naltrindole, naltrindole], the “Preference for Ethanol” value was found to be 38.2 ± 3.7% in data set [3] (1 mg/kg IP, 24 hours); 31.7 ± 4.0% in data set [3] (5 mg/kg IP, 24 hours); 31.0 ± 3.3% in data set [3] (10 mg/kg IP, 24 hours); 53.4 ± 7.9% in data set [7] (1 mg/kg IP); 55.1 ± 8.3% in data set [7] (5 mg/kg IP); 48.8 ± 6.1% in data set [7] (10 mg/kg IP). Further, the “Ethanol consumption compared with vehicle” value in data set [3] (5 and 10 mg/kg IP, 24 hours, continuous access 10% ethanol) is listed as “significantly reduce ethanol consumption”; in data set [7] (all doses tested, IP) it was “did not significantly affect ethanol consumption”. Further, the IC50 is 0.4 ± 0.02 nM at DOP-R [5] (Mean (± SEM) IC50 for Striatal DOP-R Inhibition, DPDPE Inhibition, DPDPE (10 μmol/L)-stimulated [35S]GTPγS binding); 31 ± 3.9 nM on DOP-R [5] (Mean (± SEM) IC50 for Striatal DOP-R Inhibition, SNC80 Inhibition, SNC80 (10 μmol/L)-stimulated [35S]GTPγS binding); > 10000 nM at DOP-R [5] (Mean (± SEM) IC50 for Striatal DOP-R Inhibition, TAN67 Inhibition, TAN67 (10 μmol/L)-stimulated [35S]GTPγS binding).

As for `CN1CCC2(c3cccc(O)c3)Cc3nc4ccccc4cc3CC2C1` (stereo not drawn) [TAN67, (2-methyl-4a (α)-(3-hydroxyphenyl)-1,2,3,4,4a,5,12, 12a(α)-octahydro-quinolino[2,3,3,g]isoquinoline) dihydrobromide], the EC50 on DOP-R [12] (read-out: Mean (± SEM) EC50 for DOP-R Stimulation, Spinal Cord, spinal cord membranes) stood at 3700 ± 2200 nM; at DOP-R [12] (read-out: Mean (± SEM) EC50 for DOP-R Stimulation, Striatum, striatum membranes), 372 ± 20 nM.
